Tests used:
[1] = target: Phosphatidylinositol 4-phosphate 5-kinase type-1 gamma (Homo sapiens, UniProt O60331); experiment: Inhibition of PIP5K1C (unknown origin) using D-myo-phosphatidylinositol 4-phosphate substrate and ATP by ADP-Glo kinase Assay
[2] = Inhibition of PI4K3alpha in mouse NIH3T3 cells co-expressing PDGFRbeta receptor assessed as inhibition of PDGF-induced IP1 accumulation incubated for 30 mins by HTRF based assay; assay type: cell-based; conditions: NIH3T3, 0.5 h
[3] = target: Phosphatidylinositol 4,5-bisphosphate 3-kinase catalytic subunit alpha isoform (Homo sapiens, UniProt P42336); experiment: Inhibition of PI3Kalpha (unknown origin) pre-incubated for 20 mins before phosphatidylinositol 4, 5-bisphosphate substrate addition by kinase-glo plus luminescence assay
[4] = target: Phosphatidylinositol 4,5-bisphosphate 3-kinase catalytic subunit gamma isoform (Homo sapiens, UniProt P48736); experiment: Inhibition of PI3Kgamma (unknown origin) pre-incubated for 20 mins before phosphatidylinositol 4, 5-bisphosphate substrate addition by kinase-glo plus luminescence assay
[5] = target: T1, Phosphatidylinositol 4,5-bisphosphate 3-kinase catalytic subunit delta isoform (Homo sapiens, UniProt O00329); experiment: Inhibition of PI3Kdelta (unknown origin) pre-incubated for 20 mins before phosphatidylinositol 4, 5-bisphosphate substrate addition by kinase-glo plus luminescence assay
T1 sequence (O00329 whole entry): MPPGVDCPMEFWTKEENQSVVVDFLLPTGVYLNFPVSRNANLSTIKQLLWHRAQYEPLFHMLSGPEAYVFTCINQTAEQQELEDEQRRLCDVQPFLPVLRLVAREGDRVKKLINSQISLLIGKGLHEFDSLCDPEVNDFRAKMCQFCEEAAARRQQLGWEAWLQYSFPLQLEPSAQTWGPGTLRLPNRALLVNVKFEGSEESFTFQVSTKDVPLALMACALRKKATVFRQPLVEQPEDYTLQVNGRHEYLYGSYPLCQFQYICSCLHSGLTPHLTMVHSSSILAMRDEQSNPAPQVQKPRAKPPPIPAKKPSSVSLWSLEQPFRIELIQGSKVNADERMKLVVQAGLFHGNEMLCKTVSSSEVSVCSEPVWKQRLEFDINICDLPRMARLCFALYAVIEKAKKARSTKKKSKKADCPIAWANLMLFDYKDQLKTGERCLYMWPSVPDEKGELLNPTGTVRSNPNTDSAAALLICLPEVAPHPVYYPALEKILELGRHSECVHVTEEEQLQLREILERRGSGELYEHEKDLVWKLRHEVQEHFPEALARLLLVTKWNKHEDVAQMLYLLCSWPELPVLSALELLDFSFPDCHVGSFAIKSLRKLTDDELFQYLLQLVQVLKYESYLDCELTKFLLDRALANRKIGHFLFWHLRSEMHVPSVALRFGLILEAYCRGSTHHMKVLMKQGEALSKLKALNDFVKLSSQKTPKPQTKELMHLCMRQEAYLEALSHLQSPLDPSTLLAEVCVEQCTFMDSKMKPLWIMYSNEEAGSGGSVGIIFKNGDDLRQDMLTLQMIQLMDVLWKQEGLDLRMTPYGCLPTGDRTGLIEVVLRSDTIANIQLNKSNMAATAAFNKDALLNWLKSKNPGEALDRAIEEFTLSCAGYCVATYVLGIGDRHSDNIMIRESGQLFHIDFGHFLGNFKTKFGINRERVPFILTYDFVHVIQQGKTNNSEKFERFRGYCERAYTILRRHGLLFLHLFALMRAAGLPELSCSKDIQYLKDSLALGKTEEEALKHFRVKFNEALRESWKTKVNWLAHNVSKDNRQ

[6] = target: Phosphatidylinositol 4-kinase alpha (Homo sapiens, UniProt P42356); experiment: Inhibition of N-terminal FLAG-tagged human full length recombinant PI4K3alpha using D-myo-phosphatidylinositol substrate and ATP incubated for 45 mins by ADP-Glo kinase Assay
[7] = target: Phosphatidylinositol 4,5-bisphosphate 3-kinase catalytic subunit beta isoform (Homo sapiens, UniProt P42338); experiment: Inhibition of PI3Kbeta (unknown origin) pre-incubated for 20 mins before phosphatidylinositol 4, 5-bisphosphate substrate addition by kinase-glo plus luminescence assay
[8] = target: Phosphatidylinositol 4-kinase beta (Homo sapiens, UniProt Q9UBF8); experiment: Inhibition of N-terminal GST-tagged human full length recombinant PI4K3beta expressed in Sf9 cells using D-myo-phosphatidylinositol substrate and ATP incubated for 45 mins by ADP-Glo kinase Assay
Sequence of Phosphatidylinositol 4-kinase beta (Q9UBF8 whole entry): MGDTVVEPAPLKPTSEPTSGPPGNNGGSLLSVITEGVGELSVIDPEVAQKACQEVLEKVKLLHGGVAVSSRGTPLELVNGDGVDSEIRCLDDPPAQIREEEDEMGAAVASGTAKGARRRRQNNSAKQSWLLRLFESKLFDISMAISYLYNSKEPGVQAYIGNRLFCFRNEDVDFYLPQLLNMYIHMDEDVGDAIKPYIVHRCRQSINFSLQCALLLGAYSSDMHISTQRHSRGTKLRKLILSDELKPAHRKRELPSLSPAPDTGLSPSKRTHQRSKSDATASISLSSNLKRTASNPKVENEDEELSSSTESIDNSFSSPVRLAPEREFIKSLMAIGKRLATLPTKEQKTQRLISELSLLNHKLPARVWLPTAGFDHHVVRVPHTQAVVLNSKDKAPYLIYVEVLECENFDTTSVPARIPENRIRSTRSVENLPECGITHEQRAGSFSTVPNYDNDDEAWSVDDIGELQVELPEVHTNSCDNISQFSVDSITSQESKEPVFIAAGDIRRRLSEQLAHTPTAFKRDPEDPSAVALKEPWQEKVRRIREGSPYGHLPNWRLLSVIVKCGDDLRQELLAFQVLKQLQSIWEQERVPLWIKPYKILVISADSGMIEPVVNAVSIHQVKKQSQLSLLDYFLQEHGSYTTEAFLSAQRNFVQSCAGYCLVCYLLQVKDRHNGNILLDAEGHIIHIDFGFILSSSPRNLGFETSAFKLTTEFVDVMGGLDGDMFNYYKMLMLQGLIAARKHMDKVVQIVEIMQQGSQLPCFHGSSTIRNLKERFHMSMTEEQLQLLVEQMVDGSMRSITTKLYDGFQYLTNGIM

Sequence of Phosphatidylinositol 4-kinase alpha (P42356 whole entry, canonical isoform): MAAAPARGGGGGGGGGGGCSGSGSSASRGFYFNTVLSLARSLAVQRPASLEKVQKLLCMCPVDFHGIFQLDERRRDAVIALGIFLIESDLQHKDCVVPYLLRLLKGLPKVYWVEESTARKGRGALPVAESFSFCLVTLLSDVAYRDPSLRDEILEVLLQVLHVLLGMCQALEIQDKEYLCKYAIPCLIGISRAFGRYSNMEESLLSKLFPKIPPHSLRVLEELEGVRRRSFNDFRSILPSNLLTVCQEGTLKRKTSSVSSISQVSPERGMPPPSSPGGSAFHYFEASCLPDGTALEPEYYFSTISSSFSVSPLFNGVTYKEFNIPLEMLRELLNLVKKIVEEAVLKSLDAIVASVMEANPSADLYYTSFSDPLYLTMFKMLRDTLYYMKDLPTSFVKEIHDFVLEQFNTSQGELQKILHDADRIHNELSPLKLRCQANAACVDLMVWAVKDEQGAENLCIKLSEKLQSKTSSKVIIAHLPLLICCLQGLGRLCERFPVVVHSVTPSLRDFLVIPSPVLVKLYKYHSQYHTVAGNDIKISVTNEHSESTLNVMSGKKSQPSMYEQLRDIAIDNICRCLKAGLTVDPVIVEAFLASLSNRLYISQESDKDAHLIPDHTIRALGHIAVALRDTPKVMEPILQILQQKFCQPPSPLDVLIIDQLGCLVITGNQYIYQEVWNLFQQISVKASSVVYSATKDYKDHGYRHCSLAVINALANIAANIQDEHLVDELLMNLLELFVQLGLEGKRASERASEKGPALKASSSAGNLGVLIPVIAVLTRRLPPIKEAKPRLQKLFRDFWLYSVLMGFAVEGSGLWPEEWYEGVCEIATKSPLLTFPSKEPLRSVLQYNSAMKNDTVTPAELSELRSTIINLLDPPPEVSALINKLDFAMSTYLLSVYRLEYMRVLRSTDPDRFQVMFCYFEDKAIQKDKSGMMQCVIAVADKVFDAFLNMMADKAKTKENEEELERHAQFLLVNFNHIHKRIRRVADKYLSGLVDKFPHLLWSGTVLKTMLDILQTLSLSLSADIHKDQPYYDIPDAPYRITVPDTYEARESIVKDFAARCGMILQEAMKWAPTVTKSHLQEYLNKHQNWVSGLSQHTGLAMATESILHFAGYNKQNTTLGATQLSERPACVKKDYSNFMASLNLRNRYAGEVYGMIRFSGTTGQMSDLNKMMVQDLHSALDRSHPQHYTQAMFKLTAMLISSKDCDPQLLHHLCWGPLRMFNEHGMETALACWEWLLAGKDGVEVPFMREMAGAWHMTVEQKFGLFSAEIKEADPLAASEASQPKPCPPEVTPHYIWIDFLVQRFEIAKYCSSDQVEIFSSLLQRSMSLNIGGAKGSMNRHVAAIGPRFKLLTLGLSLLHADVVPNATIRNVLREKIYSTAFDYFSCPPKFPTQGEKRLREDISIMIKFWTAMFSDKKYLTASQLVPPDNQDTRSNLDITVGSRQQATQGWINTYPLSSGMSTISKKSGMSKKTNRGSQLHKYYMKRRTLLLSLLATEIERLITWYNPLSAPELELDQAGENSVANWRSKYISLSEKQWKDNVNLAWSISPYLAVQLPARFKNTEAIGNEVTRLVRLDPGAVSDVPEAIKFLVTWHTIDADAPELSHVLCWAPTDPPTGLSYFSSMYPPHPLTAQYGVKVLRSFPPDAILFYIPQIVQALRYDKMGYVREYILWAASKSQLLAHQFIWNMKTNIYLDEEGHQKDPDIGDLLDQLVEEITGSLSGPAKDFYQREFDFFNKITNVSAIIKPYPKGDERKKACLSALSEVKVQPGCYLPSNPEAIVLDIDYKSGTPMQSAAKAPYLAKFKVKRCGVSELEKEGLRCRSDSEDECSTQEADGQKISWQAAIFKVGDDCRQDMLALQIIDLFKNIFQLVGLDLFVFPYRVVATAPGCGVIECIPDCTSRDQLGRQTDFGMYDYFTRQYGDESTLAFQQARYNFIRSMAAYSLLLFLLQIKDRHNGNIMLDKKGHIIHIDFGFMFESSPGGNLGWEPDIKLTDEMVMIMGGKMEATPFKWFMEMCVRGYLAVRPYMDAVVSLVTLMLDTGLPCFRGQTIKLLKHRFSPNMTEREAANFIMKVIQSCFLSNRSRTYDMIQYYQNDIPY
Sequence of Phosphatidylinositol 4,5-bisphosphate 3-kinase catalytic subunit alpha isoform (P42336 whole entry, canonical isoform): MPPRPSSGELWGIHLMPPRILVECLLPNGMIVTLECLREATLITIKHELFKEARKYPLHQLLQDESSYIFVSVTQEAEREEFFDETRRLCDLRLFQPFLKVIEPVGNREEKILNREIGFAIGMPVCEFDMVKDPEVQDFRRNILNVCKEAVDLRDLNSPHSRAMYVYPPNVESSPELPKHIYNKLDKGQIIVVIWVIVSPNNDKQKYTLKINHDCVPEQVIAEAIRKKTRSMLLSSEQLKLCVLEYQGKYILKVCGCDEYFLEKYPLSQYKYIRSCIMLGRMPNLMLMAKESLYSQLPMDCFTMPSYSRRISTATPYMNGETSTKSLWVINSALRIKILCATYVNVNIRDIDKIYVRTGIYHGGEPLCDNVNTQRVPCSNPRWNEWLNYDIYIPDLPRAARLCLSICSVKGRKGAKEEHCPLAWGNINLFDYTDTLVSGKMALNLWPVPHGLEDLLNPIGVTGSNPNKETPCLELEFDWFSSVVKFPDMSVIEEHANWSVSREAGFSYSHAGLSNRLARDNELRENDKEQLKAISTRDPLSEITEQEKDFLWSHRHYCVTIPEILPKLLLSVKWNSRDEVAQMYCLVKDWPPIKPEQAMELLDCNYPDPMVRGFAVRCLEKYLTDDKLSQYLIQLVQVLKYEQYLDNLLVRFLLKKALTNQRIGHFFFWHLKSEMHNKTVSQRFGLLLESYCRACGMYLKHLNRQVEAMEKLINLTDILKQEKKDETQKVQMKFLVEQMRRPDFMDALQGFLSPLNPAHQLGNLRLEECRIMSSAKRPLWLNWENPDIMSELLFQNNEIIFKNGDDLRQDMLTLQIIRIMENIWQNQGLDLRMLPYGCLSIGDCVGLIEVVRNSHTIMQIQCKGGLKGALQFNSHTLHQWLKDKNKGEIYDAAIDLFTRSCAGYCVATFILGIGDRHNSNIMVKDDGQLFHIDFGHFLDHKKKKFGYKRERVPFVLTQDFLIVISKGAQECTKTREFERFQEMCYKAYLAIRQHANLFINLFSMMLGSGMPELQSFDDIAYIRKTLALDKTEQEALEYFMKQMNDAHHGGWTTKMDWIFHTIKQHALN
Sequence of Phosphatidylinositol 4-phosphate 5-kinase type-1 gamma (O60331 whole entry): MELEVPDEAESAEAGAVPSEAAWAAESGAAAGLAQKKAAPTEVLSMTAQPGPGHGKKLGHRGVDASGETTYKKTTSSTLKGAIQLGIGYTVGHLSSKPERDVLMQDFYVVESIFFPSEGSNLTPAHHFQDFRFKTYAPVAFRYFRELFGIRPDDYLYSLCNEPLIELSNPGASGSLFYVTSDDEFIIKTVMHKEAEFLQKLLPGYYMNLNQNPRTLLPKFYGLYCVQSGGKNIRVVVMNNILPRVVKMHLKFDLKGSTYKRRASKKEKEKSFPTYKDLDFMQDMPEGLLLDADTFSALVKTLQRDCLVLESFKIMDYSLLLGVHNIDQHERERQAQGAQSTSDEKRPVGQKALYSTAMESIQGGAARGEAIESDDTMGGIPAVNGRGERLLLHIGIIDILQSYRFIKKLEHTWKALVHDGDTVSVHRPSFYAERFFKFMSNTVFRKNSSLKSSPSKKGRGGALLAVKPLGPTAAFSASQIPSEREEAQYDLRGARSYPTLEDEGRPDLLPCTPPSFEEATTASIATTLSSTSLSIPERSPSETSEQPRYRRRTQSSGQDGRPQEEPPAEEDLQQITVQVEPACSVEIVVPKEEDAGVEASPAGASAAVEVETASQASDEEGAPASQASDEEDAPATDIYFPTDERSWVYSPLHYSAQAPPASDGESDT

Compound | IC50 [1] | IC50 [2] | IC50 [3] | IC50 [4] | IC50 [5] | IC50 [6] | IC50 [7] | IC50 [8]
O=c1cc(-c2ccc3nc(NCC4CCOCC4)sc3c2)ccn1CC1CC1 | > 100 µM | 0.794 µM | > 200 µM | 15.8 µM | 100 µM | 0.00501 µM | > 200 µM | 0.398 µM
C[C@@H](Nc1nc2ccc(-c3ccn(CC4CC4)c(=O)c3)cc2s1)C1CCOCC1 | > 100 µM | 0.631 µM | > 200 µM | 63.1 µM | > 200 µM | 0.00794 µM | > 200 µM | 0.316 µM
C[C@H](Nc1nc2ccc(-c3ccn(CC4CC4)c(=O)c3)cc2s1)C1CCOCC1 | 25.1 µM | 7.94 µM | > 200 µM | > 200 µM | > 200 µM | 0.0398 µM | > 200 µM | 2.51 µM
O=c1cc(-c2ccc3nc(NCC4CCS(=O)(=O)CC4)sc3c2)ccn1CC1CC1 | > 100 µM | 0.631 µM | 79.4 µM | 50.1 µM | > 200 µM | 0.002 µM | > 200 µM | 0.631 µM

Compounds with a lower IC50 [2], results first:

IC50 [1] | IC50 [2] | IC50 [3] | IC50 [4] | IC50 [5] | IC50 [6] | IC50 [7] | IC50 [8] | Compound
> 79.4 µM | 0.501 µM | 6.31 µM | 1.58 µM | 12.6 µM | 0.00631 µM | > 126 µM | 1.58 µM | Nc1nc2ccc(-c3ccn(CC4CC4)c(=O)c3)cc2s1
 | 0.316 µM | 100 µM | 10 µM | > 79.4 µM | 0.001 µM | > 200 µM | 0.251 µM | O=c1cc(-c2ccc3nc(NC[C@H]4CC[C@H](C(=O)O)CC4)sc3c2)ccn1CC1CC1
